Patent US20230240994A1, “MEDICAMENT-CONTAINING HOLLOW PARTICLE” (Sumitomo Pharma Co., Ltd., priority 2012, published 2023)
Structures can show the parent of a compound that is named as a salt.

experiment: Particle size distribution by laser diffraction particle size analyzer (volume basis); format: physicochemical; conditions: medicament used (raw material), laser diffraction SALD-3000J
Procedure: In the present invention, the “average particle size” means cumulative 50% particle size D50 in the volume based measurement of powder particles. Such average particle size is measured by a laser diffraction particle size analyzer (e.g., Particle Viewer manufactured by POWREX CORPORATION, or SALD-3000J manufactured by Shimadzu Corporation, or HELOS&RODOS manufactured by Sympatec GmbH) by volume basis.
The particle size distribution of medicament, polymer, other additive, a mixed powder of the medicament and other additive, and the obtained medicament-containing particle was measured by a laser diffraction particle size analyzer (manufactured by POWREX CORPORATION, Particle Viewer) or laser diffraction particle size analyzer (manufactured by Shimadzu Corporation, SAID-3000J) by volume basis.

SMILES	particle size distribution D10	particle size distribution D50	particle size distribution D90
NS(=O)(=O)Cc1noc2ccccc12 [Compound A (D50: 2.7 μm)]	0.7 μm	2.7 μm	5.6 μm
NS(=O)(=O)Cc1noc2ccccc12 [Compound A (D50: 6.9 μm)]	1.0 μm	6.9 μm	26.8 μm
NS(=O)(=O)Cc1noc2ccccc12 [Compound A (D50: 9.9 μm)]	1.2 μm	9.9 μm	42.9 μm
NS(=O)(=O)Cc1noc2ccccc12 [Compound A, 1,2-benzisoxazole-3-methanesulfonamide, reference compound]	0.7 μm	2.7 μm	5.6 μm

same assay, conditions: micronized product of Compound A used in Comparative Example 3-2

SMILES	particle size distribution D10	particle size distribution D50	particle size distribution D90
NS(=O)(=O)Cc1noc2ccccc12 [Compound A, 1,2-benzisoxazole-3-methanesulfonamide, reference compound]	3.2 μm	13.3 μm	40.8 μm

same assay, conditions: starting material as used (medicament, polymer, other additive, mixed powder); volume basis

SMILES	particle size distribution D10	particle size distribution D50	particle size distribution D90
NS(=O)(=O)Cc1noc2ccccc12 [Compound A, 1,2-benzisoxazole-3-methanesulfonamide, reference compound]	0.7 μm	2.7 μm	5.6 μm
Cl.O=C1[C@@H]2[C@H]3CC[C@H](C3)[C@@H]2C(=O)N1C[C@@H]1CCCC[C@H]1CN1CCN(c2nsc3ccccc23)CC1 [Compound B, (3aR,4S,7R,7aS)-2-{(1R,2R)-2-[4-(1,2-benzisothiazol-3-yl)piperazin-1-ylmethyl]cyclohexylmethyl}hexahydro-4,7-methano-2H-isoindole-1,3-dione hydrochloride, reference compound]	0.5 μm	1.5 μm	3.3 μm
Nc1ccc(O)c(C(=O)O)c1 [Compound D, 5-amino-2-hydroxybenzoic acid, reference compound]	1.3 μm	4.6 μm	12.7 μm
C[C@@H](c1ccc(-c2ccccc2)c(F)c1)c1cc(N=C(N)N2CCOCC2)on1 [Compound E, 3-[(1S)-1-(2-fluorobiphenyl-4-yl)ethyl]-5-{[amino(morpholin-4-yl)methylene]amino}isoxazole]	1.3 μm	3.2 μm	6.3 μm
COc1cccc(-c2nccc3[nH]c(=O)c(-c4noc(C)n4)cc23)c1 [Compound F, 5-(3-methoxyphenyl)-3-(5-methyl-1,2,4-oxadiazol-3-yl)-2-oxo-1,2-dihydro-1,6-naphthyridine]	0.6 μm	2.5 μm	5.0 μm
COc1ccc2c(c1)c(CC(=O)O)c(C)n2C(=O)c1ccc(Cl)cc1 [Compound G, 1-(4-chlorobenzoyl)-5-methoxy-2-methyl-1-H-indole-3-acetic acid, reference compound]	0.8 μm	3.1 μm	8.1 μm
OC[C@@H](O)[C@@H](O)[C@H](O)[C@H](O)CO [D-mannitol (JM pulverized product), D-mannitol]	0.5 μm	2.0 μm	4.2 μm
OC[C@@H](O)[C@@H](O)[C@H](O)[C@H](O)CO [D-mannitol (PEARLITOL 50C), D-mannitol]	6.9 μm	47.0 μm	125.2 μm
CC(=O)Nc1ccc(O)cc1 [acetaminophen, reference compound]	2.8 μm	11.6 μm	46.1 μm
OC[C@H]1O[C@@H](O[C@H]2[C@H](O)[C@@H](O)C(O)O[C@@H]2CO)[C@H](O)[C@@H](O)[C@H]1O (stereo partly drawn) [lactose (Pharmatose 200M), lactose]	4.0 μm	48.7 μm	129.0 μm
O=C([O-])[O-].[Mg+2] [magnesium carbonate (light), magnesium carbonate]	0.9 μm	4.0 μm	10.6 μm
CCOc1cc(N)c(Cl)cc1C(=O)NCC1CN(Cc2ccc(F)cc2)CCO1 (stereo not drawn) [mosapride citrate, reference compound]	2.3 μm	9.2 μm	30.6 μm
